Measured values published in patent US20080227797A1, “Pyridopyrimidine Derivatives as Pde4 Inhibitors for the Treatment of Inflammatory and Immune Diseases” (ASTRAZENECA AB, priority 2005, published 2008).

The molecules below were run against recombinant Human Phosphodiesterase B2 (PDE4B2) (Homo sapiens, UniProt Q07343) (assay: Human Phosphodiesterase B2 Alpha Screen Assay). Details: cAMP substrate, Alpha Screen cAMP kit, 60 minutes at room temperature.
Assay type: biochemical
Protocol: Human Phosphodiesterase B2 Alpha Screen Assay
The assay uses recombinant Human Phosphodiesterase B2 (PDE4B2) produced in house (PrAZL0133), stored at −20° C. The substrate uses cAMP, part of the Alpha Screen cAMP kit (Perkin Elmer, Cat# 6760625M), stored at 4° C. The Alpha Screen kit also includes biotinylated cAMP, acceptor and donor beads.
The assay additions were as follows: Test compounds and controls were added to white 384-well flat-bottom plates (Greiner, Cat# 781075), 0.2 μl in 100% DMSO, followed by 10 μl PDE4B2 in reaction buffer. The reaction buffer constitution was: 50 mM Tris (pH 7.5), 8.3 mM MgCl2, 1.7 mM EGTA and 0.01% (w/v) Brij®35. The enzyme and the compounds were incubated at room temperature for 15 minutes. Then 10 μl cAMP in reaction buffer was added. The assay was stopped after 60 minutes incubation at room temperature by adding 10 μl acceptor beads in detection buffer with 40 mM EDTA. The detection buffer constitution was: 5 mM Tris (pH 7.5), 0.1% (w/v) BSA and 0.1% (v/v) Tween 20. This addition followed by an addition of 10 μl donor beads in detection buffer, with biotinylated cAMP. The plates were then incubated, dark at room temperature, for 5 hours followed by measurement on a Fusion™-α analyser. IC50 values (presented in Table 1) were determined using Xlfit curve fitting using model 205.

recombinant Human Phosphodiesterase B2 (PDE4B2), sequence (Q07343 1-564 isoform Q07343-2): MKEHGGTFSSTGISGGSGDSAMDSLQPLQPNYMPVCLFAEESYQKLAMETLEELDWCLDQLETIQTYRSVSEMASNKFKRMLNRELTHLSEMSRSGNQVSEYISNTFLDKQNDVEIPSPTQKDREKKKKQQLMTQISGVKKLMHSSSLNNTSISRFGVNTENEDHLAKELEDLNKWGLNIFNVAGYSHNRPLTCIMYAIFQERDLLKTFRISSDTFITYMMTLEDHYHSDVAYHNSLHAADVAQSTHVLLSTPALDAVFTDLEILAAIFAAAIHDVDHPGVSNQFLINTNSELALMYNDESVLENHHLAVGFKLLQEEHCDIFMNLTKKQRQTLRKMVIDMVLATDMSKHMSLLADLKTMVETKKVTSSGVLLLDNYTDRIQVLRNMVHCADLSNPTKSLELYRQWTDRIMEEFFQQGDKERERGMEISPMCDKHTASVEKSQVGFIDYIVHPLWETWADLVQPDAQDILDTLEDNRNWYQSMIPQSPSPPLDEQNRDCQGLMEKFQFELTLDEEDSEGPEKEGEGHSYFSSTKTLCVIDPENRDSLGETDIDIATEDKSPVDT

Structure (SMILES) | IC50
CSc1cccc(-n2c(=O)n([C@H]3CC[C@@H](NC(=O)c4cc(C)ccc4O)CC3)c(=O)c3cc(F)cnc32)c1 [Example 35, N-{cis-4-[6-fluoro-1-[3-(methylthio)phenyl]-2,4-dioxo-1,4-dihydropyrido[2,3-d]pyrimidin-3(2H)-yl]cyclohexyl}-2-hydroxy-5-methylbenzamide] | 1.4 nM
CSc1cccc(-n2c(=O)n([C@H]3CC[C@@H](NC(=O)c4cc(CO)ccc4O)CC3)c(=O)c3cc(F)cnc32)c1 [Example 36, N-{cis-4-[6-fluoro-1-[3-(methylthio)phenyl]-2,4-dioxo-1,4-dihydropyrido[2,3-d]pyrimidin-3(2H)-yl]cyclohexyl}-2-hydroxy-5-(hydroxymethyl)benzamide] | 2.9 nM
CSc1cccc(-n2c(=O)n([C@H]3CC[C@@H](NC(=O)[C@H](O)c4ccccc4)CC3)c(=O)c3cc(F)cnc32)c1 [Example 37, (2R)-N-{cis-4-[6-fluoro-1-[3-(methylthio)phenyl]-2,4-dioxo-1,4-dihydropyrido[2,3-d]pyrimidin-3(2H)-yl]cyclohexyl}-2-hydroxy-2-phenylacetamide] | 0.5 nM
CSc1cccc(-n2c(=O)n([C@H]3CC[C@@H](NC(=O)[C@@H](O)c4ccccc4)CC3)c(=O)c3cc(F)cnc32)c1 [Example 38, (2S)-N-{cis-4-[6-fluoro-1-[3-(methylthio)phenyl]-2,4-dioxo-1,4-dihydropyrido[2,3-d]pyrimidin-3(2H)-yl]cyclohexyl}-2-hydroxy-2-phenylacetamide] | < 16 nM
CSc1cccc(-n2c(=O)n([C@H]3CC[C@@H](NC(=O)CO)CC3)c(=O)c3cc(F)cnc32)c1 [Example 39, N-{cis-4-[6-fluoro-1-[3-(methylthio)phenyl]-2,4-dioxo-1,4-dihydropyrido[2,3-d]pyrimidin-3(2H)-yl]cyclohexyl}-2-hydroxyacetamide] | 23.7 nM
CS(=O)(=O)c1cccc(-n2c(=O)n([C@H]3CC[C@@H](NC(=O)c4cc(Cl)ccc4O)CC3)c(=O)c3cc(F)cnc32)c1 [Example 40, 5-chloro-N-{cis-4-[6-fluoro-1-[3-(methylsulfonyl)phenyl]-2,4-dioxo-1,4-dihydropyrido[2,3-d]pyrimidin-3(2H)-yl]cyclohexyl}-2-hydroxybenzamide] | 90.6 nM
CS(=O)(=O)c1cccc(-n2c(=O)n([C@H]3CC[C@@H](NC(=O)c4cc(CO)ccc4O)CC3)c(=O)c3cc(F)cnc32)c1 [Example 41, N-{cis-4-[6-fluoro-1-[3-(methylsulfonyl)phenyl]-2,4-dioxo-1,4-dihydropyrido[2,3-d]pyrimidin-3(2H)-yl]cyclohexyl}-2-hydroxy-5-(hydroxymethyl)benzamide] | 51.9 nM
CS(=O)(=O)c1cccc(-n2c(=O)n([C@H]3CC[C@@H](NC(=O)[C@H](O)c4ccccc4)CC3)c(=O)c3cc(F)cnc32)c1 [Example 42, (2R)-N-{cis-4-[6-fluoro-1-[3-(methylsulfonyl)phenyl]-2,4-dioxo-1,4-dihydropyrido[2,3-d]pyrimidin-3(2H)-yl]cyclohexyl}-2-hydroxy-2-phenylacetamide] | < 16 nM
CS(=O)(=O)c1cccc(-n2c(=O)n([C@H]3CC[C@@H](NC(=O)[C@@H](O)c4ccccc4)CC3)c(=O)c3cc(F)cnc32)c1 [Example 43, (2S)-N-{cis-4-[6-fluoro-1-[3-(methylsulfonyl)phenyl]-2,4-dioxo-1,4-dihydropyrido[2,3-d]pyrimidin-3(2H)-yl]cyclohexyl}-2-hydroxy-2-phenylacetamide] | 36.4 nM
CS(=O)(=O)c1cccc(-n2c(=O)n([C@H]3CC[C@@H](NC(=O)CO)CC3)c(=O)c3cc(F)cnc32)c1 [Example 44, N-{cis-4-[6-fluoro-1-[3-(methylsulfonyl)phenyl]-2,4-dioxo-1,4-dihydropyrido[2,3-d]pyrimidin-3(2H)-yl]cyclohexyl}-2-hydroxyacetamide] | 432 nM
COC(=O)c1cccc(-n2c(=O)n([C@H]3CC[C@@H](NC(=O)c4cc(C)ccc4O)CC3)c(=O)c3cc(F)cnc32)c1 [Example 45, methyl 3-[6-fluoro-3-{cis-4-[(2-hydroxy-5-methylbenzoyl)amino]cyclohexyl}-2,4-dioxo-3,4-dihydropyrido[2,3-d]pyrimidin-1(2H)-yl]benzoate] | < 16 nM
CS(=O)(=O)N[C@H]1CC[C@@H](n2c(=O)c3cc(F)cnc3n(-c3ccc(F)c(F)c3)c2=O)CC1 [Example 47, N-{cis-4-[1-(3,4-Difluorophenyl)-6-fluoro-2,4-dioxo-1,4-dihydropyrido[2,3-d]pyrimidin-3(2H)-yl]cyclohexyl}methanesulfonamide] | 60.1 nM
O=C(N[C@H]1CC[C@@H](n2c(=O)c3cc(F)cnc3n(-c3ccc(F)c(F)c3)c2=O)CC1)C1CC1 [Example 48, N-{cis-4-[1-(3,4-Difluorophenyl)-6-fluoro-2,4-dioxo-1,4-dihydropyrido[2,3-d]pyrimidin-3(2H)-yl]cyclohexyl}cyclopropanecarboxamide] | 8.8 nM
COC(=O)c1cccc(-n2c(=O)n([C@H]3CC[C@@H](NC(=O)[C@@H]4CCCN4C)CC3)c(=O)c3cc(F)cnc32)c1 [Example 49, Methyl 3-[6-fluoro-3-{cis-4-[(1-methyl-L-prolyl)amino]cyclohexyl}-2,4-dioxo-3,4-dihydropyrido[2,3-d]pyrimidin-1(2H)-yl]benzoate] | 14.5 nM
COC(=O)c1ccc(C(=O)N[C@H]2CC[C@@H](n3c(=O)c4cc(F)cnc4n(-c4ccc(F)c(F)c4)c3=O)CC2)cn1 [Example 50, methyl 5-[({cis-4-[1-(3,4-difluorophenyl)-6-fluoro-2,4-dioxo-1,4-dihydropyrido[2,3-d]pyrimidin-3(2H)-yl]cyclohexyl}amino)carbonyl]pyridine-2-carboxylate] | 2.1 nM
O=C(N[C@H]1CC[C@@H](n2c(=O)c3cc(F)cnc3n(-c3ccc(F)c(F)c3)c2=O)CC1)c1ccc(F)cc1O [Example 51, N-{cis-4-[1-(3,4-difluorophenyl)-6-fluoro-2,4-dioxo-1,4-dihydropyrido[2,3-d]pyrimidin-3(2H)-yl]cyclohexyl}-4-fluoro-2-hydroxybenzamide] | 5.2 nM
O=C(N[C@H]1CC[C@@H](n2c(=O)c3cc(F)cnc3n(-c3ccc(F)c(F)c3)c2=O)CC1)C1(O)CC1 [Example 52, N-{cis-4-[1-(3,4-difluorophenyl)-6-fluoro-2,4-dioxo-1,4-dihydropyrido[2,3-d]pyrimidin-3(2H)-yl]cyclohexyl}-1-hydroxycyclopropanecarboxamide] | 18.6 nM
O=C(N[C@H]1CC[C@@H](n2c(=O)c3cc(F)cnc3n(-c3ccc(F)c(F)c3)c2=O)CC1)c1cccc2cccnc12 [Example 53, N-{cis-4-[1-(3,4-difluorophenyl)-6-fluoro-2,4-dioxo-1,4-dihydropyrido[2,3-d]pyrimidin-3(2H)-yl]cyclohexyl}quinoline-8-carboxamide] | 0.4 nM
CSc1cccc(-n2c(=O)n([C@H]3CC[C@@H](NC(=O)c4ccco4)CC3)c(=O)c3cc(F)cnc32)c1 [Example 54, N-{cis-4-[6-fluoro-1-[3-(methylthio)phenyl]-2,4-dioxo-1,4-dihydropyrido[2,3-d]pyrimidin-3(2H)-yl]cyclohexyl}-2-furamide] | 3.9 nM
CSc1cccc(-n2c(=O)n([C@H]3CC[C@@H](NC(=O)C4CC4)CC3)c(=O)c3cc(F)cnc32)c1 [Example 55, N-{cis-4-[6-fluoro-1-[3-(methylthio)phenyl]-2,4-dioxo-1,4-dihydropyrido[2,3-d]pyrimidin-3(2H)-yl]cyclohexyl}cyclopropanecarboxamide] | 2.6 nM
CCC(=O)N[C@H]1CC[C@@H](n2c(=O)c3cc(F)cnc3n(-c3cccc(SC)c3)c2=O)CC1 [Example 56, N-{cis-4-[6-fluoro-1-[3-(methylthio)phenyl]-2,4-dioxo-1,4-dihydropyrido[2,3-d]pyrimidin-3(2H)-yl]cyclohexyl}propanamide] | 7.2 nM
CSc1cccc(-n2c(=O)n([C@H]3CC[C@@H](NC(=O)c4ccccc4)CC3)c(=O)c3cc(F)cnc32)c1 [Example 57, N-{cis-4-[6-fluoro-1-[3-(methylthio)phenyl]-2,4-dioxo-1,4-dihydropyrido[2,3-d]pyrimidin-3(2H)-yl]cyclohexyl}benzamide] | 4.2 nM
CSc1cccc(-n2c(=O)n([C@H]3CC[C@@H](NC(=O)C4CCCC4)CC3)c(=O)c3cc(F)cnc32)c1 [Example 58, N-{cis-4-[6-fluoro-1-[3-(methylthio)phenyl]-2,4-dioxo-1,4-dihydropyrido[2,3-d]pyrimidin-3(2H)-yl]cyclohexyl}cyclopentanecarboxamide] | 3.9 nM
CSc1cccc(-n2c(=O)n([C@H]3CC[C@@H](NC(=O)C(C)(C)O)CC3)c(=O)c3cc(F)cnc32)c1 [Example 59, N-{cis-4-[6-fluoro-1-[3-(methylthio)phenyl]-2,4-dioxo-1,4-dihydropyrido[2,3-d]pyrimidin-3(2H)-yl]cyclohexyl}-2-hydroxy-2-methylpropanamide] | 14.9 nM
CSc1cccc(-n2c(=O)n([C@H]3CC[C@@H](NS(=O)(=O)c4ccccc4)CC3)c(=O)c3cc(F)cnc32)c1 [Example 60, N-{cis-4-[6-fluoro-1-[3-(methylthio)phenyl]-2,4-dioxo-1,4-dihydropyrido[2,3-d]pyrimidin-3(2H)-yl]cyclohexyl}benzenesulfonamide] | 32.4 nM
